Marks after values point to notes of the source that are not given here.
Key:
[1] = test system: grain aphid, Sitobion avenae; conditions: J. Chem. Ecol. 20 (1994), Pettersson et al., Hardie et al.; cited from earlier work
[2] = test system: black bean aphid, Aphis fabae; conditions: J. Chem. Ecol. 20 (1994), Pettersson et al., Hardie et al.; cited from earlier work
[3] = test system: D251 sequence in Vicia faba plants; assay: Differential display and northern blot of gene-specific sequence D251; type: in vivo; conditions: northern blot, versus air
Method: Total RNA was isolated from stem or leaf tissue of plants exposed to air, methyl jasmonate or cis-jasmone. 10 μg RNA per sample was loaded and separated on a formaldehyde gel (Panel A). The samples were then transferred to a nylon membrane and probed with the D251 sequence (Panel B). Lane 1=air treatment (control); lane 2=cis-jasmone treatment; lane 3=methyl jasmonate treatment. In the case of RNA isolated from leaf tissue, only cis-jasmone treatment results in upregulation. In order to determine if cis-jasmone was capable of inducing alterations in plant gene expression, the sensitive technique of differential display was carried out on RNA extracted from plants which had been exposed to air, methyl jasmonate or cis-jasmone. […] To confirm this observation, bands of interest were recovered by excision from the dried gel and re-amplified with the appropriate pair of oligonucleotide primers. The resulting PCR products were cloned and sequenced to confirm the homogeneous nature of the amplified product. These sequences were then used to probe RNA isolated from control or treated V. faba plants. […] It is important to note that the nature of the differential display technique generates short gene-specific probes, containing mainly 3′ untranslated regions of transcribed sequences, and therefore the functional part of the differentially expressed gene is unknown. Thus, using differential display and confirmatory northern blotting, we have shown that methyl jasmonate and cis-jasmone have apparently distinct effects on plant gene expression. […] Thus, the two compounds have distinct effect on plant gene expression and the response to these signalling compounds may be tissue-specific.

[4] = test system: broad bean, V. faba (cv The Sutton); assay: Induction of volatile release by bean plants (air entrainment, GC/GC-MS); type: in vivo, Vicia faba; conditions: 24 hour exposure at 100 μg/l in air; 48 hour entrainments
Method: A possible role for the compound as an airborne plant signal was investigated using the broad bean, V. faba (cv The Sutton). Plants were kept for 24 hours in clean air or in air incorporating cis-jasmone at 100 μg/l; subsequently, samples of volatiles released by the plants were obtained by entrainment over 4 periods of 48 hours, i.e. up to 192 hours after the end of the treatment. The cis-jasmone itself was undetectable after 48 hours. […] There was also, from some replicates, enhancement of (E,E)-α-farnesene, (−)-β-caryophyllene and (E)-4,8-dimethyl-1,3,7-nonatriene. These compounds have all been implicated in herbivorous insect-induced production and increased parasitoid foraging. The nonatriene can also be produced innately by plants imitating damage for defence against herbivores and which are thus attractive to parasitoids.
Bean plants, V. faba (cv The Sutton) were grown under standard glasshouse conditions until the 2-4 leaf stage when they were rinsed free of soil and transplanted into baked glass jars containing washed sand, with 3 plants per jar. These were left for 1-2 days to acclimatize. Plants to be treated (three jars of three plants each) were sealed in a 25 l glass tank for 24 hours with either cis-jasmone or methyl jasmonate (2.5 mg) applied to a piece of filter paper (Whatman No. 1) placed on the floor of the tank. […]

[5] = test system: aphid parasitoid Aphidius ervi; assay: Wind tunnel single choice test of A. ervi with synthetic compounds on filter paper; type: in vivo; conditions: 10 μg on filter paper, hexane control 26.7
From the text: Since semiochemicals acting as repellents or inhibitors of host attractancy for herbivorous insects are often involved in predation or parasitism, the activity of cis-jasmone was also investigated at higher trophic levels. […] These experiments indicate a behavioural role for cis-jasmone in influencing interactions between plants, herbivorous insects and their predators and parasitoids. Naive female A. ervi were flown in a wind tunnel, as described in J. Chem. Ecol. 16, 381-396 (1996) (Poppy et al.). The parasitoids were released 25 cm downwind (single choice tests) or 40 cm downwind (dual choice test) of the target, which was either a plant or a synthetic compound (10 μg in 10 μl hexane) placed on a 2×1 cm strip of filter paper (Whatman No. 1) surrounded by a ring of green crêpe paper. The proportions of parasitoids responding with an oriented flight to the synthetic chemicals were calculated each day on 3 separate days. These values were then subjected to a logit transformation to normalize the data before being analysed by ANOVA followed by Tukey post-hoc tests. The number of parasitoids orienting upwind to the single plant target were recorded and subjected to a χ^2 contingency test (Pearson method on Genstat—see Genstat 5 Committee. Genstat 5 Reference Manual, Release 3 (Clarendon Press, Oxford, 1993)) to determine whether an orienting response was linked to the type of plant treatment. The numbers orienting to each plant in the dual choice test were analysed by a χ^2 to determine whether one plant was more attractive than the other.

## COC(=O)c1ccccc1O [Methyl salicylate]
[1]
  behavioural effect on cereal aphids including the grain aphid: repelling
[2]
  behavioural effect on black bean aphid: repelling

## CC/C=C\CC1C(=O)CCC1CC(=O)OC (stereo not shown) [methyl jasmonate, reference compound]
[3]; RNA from leaf tissue of plants exposed to vapour
  expression of D251 sequence in leaf tissue: only cis-jasmone brought about an increase
[3]; RNA from stem tissue of plants exposed to vapour
  expression of D251 sequence in stem tissue: upregulated to a similar level
[4]
  effect on levels of (E)-β-ocimene released: did not significantly increase

## C=C/C(C)=C/C/C=C(\C)CCC=C(C)C [(E,E)-α-farnesene]
[5]
  % showing oriented flight: 60.9^a %

## C=C/C(C)=C/CC=C(C)C [(E)-β-ocimene]
[5]
  % showing oriented flight: 48.8^a %

Source: US8221736B2, “Semiochemical” (Rothamsted Research Limited, priority 1999, dated 2012)
